The source of these data is patent US20170233413A1, “SUBSTITUTED ANNULATED PYRIMIDINES AND USE THEREOF” (Bayer Pharma Aktiengesellschaft, priority 2014, published 2017).

For assay [1], the target named is T1, recombinant guanylate cyclase reporter cell line (Rattus norvegicus, UniProt P19686+P20595).
T1 construct: expressed in transfected cells
T1 sequence (P19686 1-690): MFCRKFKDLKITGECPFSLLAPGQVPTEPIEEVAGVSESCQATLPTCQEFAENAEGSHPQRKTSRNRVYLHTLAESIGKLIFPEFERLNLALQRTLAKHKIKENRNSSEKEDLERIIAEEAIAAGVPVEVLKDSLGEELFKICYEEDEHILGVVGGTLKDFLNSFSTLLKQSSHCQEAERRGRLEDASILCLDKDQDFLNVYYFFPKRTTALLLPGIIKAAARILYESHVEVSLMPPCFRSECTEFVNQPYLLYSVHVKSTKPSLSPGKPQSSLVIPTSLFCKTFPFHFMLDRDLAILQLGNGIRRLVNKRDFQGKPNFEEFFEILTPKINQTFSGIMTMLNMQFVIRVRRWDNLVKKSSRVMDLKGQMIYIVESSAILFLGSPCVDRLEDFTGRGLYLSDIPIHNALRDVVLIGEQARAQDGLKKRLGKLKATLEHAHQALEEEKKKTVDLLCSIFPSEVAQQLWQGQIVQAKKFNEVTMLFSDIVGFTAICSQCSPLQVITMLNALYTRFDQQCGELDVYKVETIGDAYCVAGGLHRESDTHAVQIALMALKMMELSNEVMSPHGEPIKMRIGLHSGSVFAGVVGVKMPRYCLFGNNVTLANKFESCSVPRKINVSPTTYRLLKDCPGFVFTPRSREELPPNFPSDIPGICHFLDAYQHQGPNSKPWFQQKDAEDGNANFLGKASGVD
T1 sequence (P20595 1-619): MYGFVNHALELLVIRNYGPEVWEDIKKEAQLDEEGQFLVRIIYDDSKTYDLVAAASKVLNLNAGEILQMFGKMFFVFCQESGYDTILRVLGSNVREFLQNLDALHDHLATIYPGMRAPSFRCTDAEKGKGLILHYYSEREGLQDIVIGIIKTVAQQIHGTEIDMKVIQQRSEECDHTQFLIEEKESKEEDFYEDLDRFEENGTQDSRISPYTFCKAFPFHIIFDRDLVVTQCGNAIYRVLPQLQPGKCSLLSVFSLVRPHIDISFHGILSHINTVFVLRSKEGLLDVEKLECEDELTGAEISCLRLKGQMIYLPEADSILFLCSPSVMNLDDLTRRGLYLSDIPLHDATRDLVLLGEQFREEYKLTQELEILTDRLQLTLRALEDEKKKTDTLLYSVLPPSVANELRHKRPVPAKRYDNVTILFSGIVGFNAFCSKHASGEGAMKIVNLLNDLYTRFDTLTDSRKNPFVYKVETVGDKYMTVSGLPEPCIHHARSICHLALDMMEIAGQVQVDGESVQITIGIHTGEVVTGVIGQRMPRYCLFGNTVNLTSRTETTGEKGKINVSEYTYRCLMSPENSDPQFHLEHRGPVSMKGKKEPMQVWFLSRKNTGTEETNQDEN
Kind of assay: Effect on a recombinant guanylate cyclase reporter cell line. The class given is cell-based. The note with it: MEC = minimum effective concentration; in some cases means of individual determinations. Summed up:
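Values are reported as MEC, sometimes averaged over individual determinations. The test system is a reporter cell line expressing recombinant rat guanylate cyclase.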

Assay [2] deals with T2, human phosphodiesterase 5 (PDE 5) (Homo sapiens, UniProt O76074).
T2 construct: PDE 5 preparations are obtained from human platelets by disruption; from tissue; host or cells: human platelets
Briefly: Inhibition of human phosphodiesterase 5 (PDE 5). It counts as biochemical. The note with it: PDE 5 preparation from human platelets; in some cases means of individual determinations. Summed up: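 IC50 comes from percent inhibition over a 1:3 series with final levels of 4 to 0.0018 μM. Reaction: tritiated cGMP tracer (0.025 μCi) with platelet-derived, Mono Q-purified enzyme, 1 h at room temperature in Tris pH 7.5, under 70% turnover. Read-out by scintillation proximity beads.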

Consider `CC1(C)C(=O)Nc2nc(-c3nn(Cc4ccccc4F)c4ncccc34)nc(C(=O)N3CCC(O)C3)c21` (centres unmarked) [Example 26], for which the MEC in assay [1] was 0.3 µM. Further, the midpoint of inhibition in assay [2], the IC50, lay at 930 nM.

As to `CC1(C)C(=O)Nc2nc(-c3nn(Cc4ncccc4F)c4ncc(F)cc34)nc(C(=O)NC(C3CC3)C3CC3)c21` [Example 34], in assay [1], the MEC came out at 1 µM. The compound also yielded a half-inhibitory concentration (IC50) in assay [2] of 77 nM.

Turning to `Cc1nc2c(cc1F)c(-c1nc3c(c(C(N)=O)n1)C(C)(C)C(=O)N3)nn2Cc1cccc(F)c1F` [Example 4, 2-[1-(2,3-Difluorobenzyl)-5-fluoro-6-methyl-1H-pyrazolo[3,4-b]pyridin-3-yl]-5,5-dimethyl-6-oxo-6,7-dihydro-5H-pyrrolo[2,3-d]pyrimidine-4-carboxamide], the MEC in assay [1] turned out to be 0.2 µM. The IC50 in assay [2] turned out to be 110 nM.

As for `CC1(NC(=O)c2nc(-c3nn(Cc4ccccc4F)c4ncccc34)nc3c2C(C)(C)C(=O)N3)CCC1` [Example 97, 2-[1-(2-fluorobenzyl)-1H-pyrazolo[3,4-b]pyridin-3-yl]-5,5-dimethyl-N-(1-methylcyclobutyl)-6-oxo-6,7-dihydro-5H-pyrrolo[2,3-d]pyrimidine-4-carboxamide], in assay [1], the MEC is 0.3 µM. For the same compound, in assay [2], the IC50 was 8.2 nM.

On to `CC1(C)C(=O)Nc2nc(-c3nn(Cc4ccccc4F)c4ncccc34)nc(C(=O)NCCF)c21` [Example 83, 2-[1-(2-fluorobenzyl)-1H-pyrazolo[3,4-b]pyridin-3-yl]-N-(2-fluoroethyl)-5,5-dimethyl-6-oxo-6,7-dihydro-5H-pyrrolo[2,3-d]pyrimidine-4-carboxamide], for which, in assay [1], the MEC turned out to be 0.1 µM. The compound further yielded an IC50 in assay [2] of 13 nM.

On to `CCC(CC)CNC(=O)c1nc(-c2nn(Cc3ccccc3F)c3ncccc23)nc2c1C(C)(C)C(=O)N2` [Example 59, N-(2-Ethylbutyl)-2-[1-(2-fluorobenzyl)-1H-pyrazolo[3,4-b]pyridin-3-yl]-5,5-dimethyl-6-oxo-6,7-dihydro-5H-pyrrolo[2,3-d]pyrimidine-4-carboxamide], for which the MEC in assay [1] worked out at 1 µM. Also, the half-inhibitory concentration (IC50) in assay [2] stood at 91 nM.

Regarding `CN(C(=O)c1nc(-c2nn(Cc3ccccc3F)c3cc(Cl)ccc23)nc2c1C(C)(C)C(=O)N2)C1CC1` [Example 46], the MEC in assay [1] worked out at 0.03 µM. The same compound yielded an IC50 in assay [2] of 1000 nM.

Take `CC1(CNC(=O)c2nc(-c3nn(Cc4ccccc4F)c4ncccc34)nc3c2C(C)(C)C(=O)N3)COC1` [Example 103, 2-[1-(2-fluorobenzyl)-1H-pyrazolo[3,4-b]pyridin-3-yl]-5,5-dimethyl-N-[(3-methyloxetan-3-yl)methyl]-6-oxo-6,7-dihydro-5H-pyrrolo[2,3-d]pyrimidine-4-carboxamide]: the MEC in assay [1] came out at 0.3 µM. In assay [2], this compound gave a 50% inhibitory concentration (IC50) of 10 nM.

Consider `CC(C)C(C)NC(=O)c1nc(-c2nn(Cc3ccccc3F)c3ncccc23)nc2c1C(C)(C)C(=O)N2` (racemic) [Example 133, rac-2-[1-(2-fluorobenzyl)-1H-pyrazolo[3,4-b]pyridin-3-yl]-5,5-dimethyl-N-(3-methylbutan-2-yl)-6-oxo-6,7-dihydro-5H-pyrrolo[2,3-d]pyrimidine-4-carboxamide], for which, in assay [1], the MEC was found to be 1 µM. This compound displayed an IC50 in assay [2] of 30 nM.

On to `CC1(C)C(=O)Nc2nc(-c3nn(Cc4ccccc4F)c4ncccc34)nc(C(=O)NCc3ccccc3)c21` [Example 115, N-benzyl-2-[1-(2-fluorobenzyl)-1H-pyrazolo[3,4-b]pyridin-3-yl]-5,5-dimethyl-6-oxo-6,7-dihydro-5H-pyrrolo[2,3-d]pyrimidine-4-carboxamide], for which the MEC in assay [1] was 0.1 µM. Also, the IC50 in assay [2] is 41 nM.

With `CN(CC1CC1)C(=O)c1nc(-c2nn(Cc3ncccc3F)c3ncc(F)cc23)nc2c1C(C)(C)C(=O)N2` [Example 33], the MEC in assay [1] worked out at 0.1 µM. The same compound returned an IC50 in assay [2] of 110 nM.

Consider `Cc1nc2c(cc1F)c(-c1nc3c(c(C(N)=O)n1)C(C)(C(F)(F)F)C(=O)N3)nn2Cc1c(F)ccc(F)c1F` (racemic) [Example 15, rac-2-[5-fluoro-6-methyl-1-(2,3,6-trifluorobenzyl)-1H-pyrazolo[3,4-b]pyridin-3-yl]-5-methyl-6-oxo-5-(trifluoromethyl)-6,7-dihydro-5H-pyrrolo[2,3-d]pyrimidine-4-carboxamide], for which the MEC in assay [1] is 0.2 µM. The compound further came in with a 50% inhibitory concentration (IC50) in assay [2] of 1200 nM.

Consider `Cc1nc2c(cc1F)c(-c1nc3c(c(C(N)=O)n1)C(C)(C(F)(F)F)C(=O)N3)nn2Cc1cccc(F)c1F` (single isomer, unassigned; ent-2) [Example 11, ent-2-[1-(2,3-Difluorobenzyl)-5-fluoro-6-methyl-1H-pyrazolo[3,4-b]pyridin-3-yl]-5-methyl-6-oxo-5-(trifluoromethyl)-6,7-dihydro-5H-pyrrolo[2,3-d]pyrimidine-4-carboxamide (enantiomer B)], for which, in assay [1], the MEC amounted to 0.1 µM. This compound yielded an IC50 in assay [2] of 91 nM.

Regarding `CC1(C(F)(F)F)C(=O)Nc2nc(-c3nn(Cc4ncccc4F)c4ncc(F)cc34)nc(C(N)=O)c21` (single isomer, unassigned; ent-2) [Example 23, ent-2-{5-Fluoro-1-[(3-fluoropyridin-2-yl)methyl]-1H-pyrazolo[3,4-b]pyridin-3-yl}-5-methyl-6-oxo-5-(trifluoromethyl)-6,7-dihydro-5H-pyrrolo[2,3-d]pyrimidine-4-carboxamide (enantiomer B)], the MEC in assay [1] was found to be 6.5 µM. Also, half-maximal inhibition in assay [2] (IC50) was put at 1300 nM.

Take `CC1(C)C(=O)Nc2nc(-c3nn(Cc4ccccc4F)c4ncccc34)nc(C(=O)NCCC(N)=O)c21` [Example 95, N-(3-amino-3-oxopropyl)-2-[1-(2-fluorobenzyl)-1H-pyrazolo[3,4-b]pyridin-3-yl]-5,5-dimethyl-6-oxo-6,7-dihydro-5H-pyrrolo[2,3-d]pyrimidine-4-carboxamide]: in assay [1], the MEC turned out to be 1 µM. For the same compound, the IC50 in assay [2] was 48 nM.

In the case of `Cc1ccc(NC(=O)c2nc(-c3nn(Cc4ccccc4F)c4ncccc34)nc3c2C(C)(C)C(=O)N3)cn1` [Example 91, 2-[1-(2-fluorobenzyl)-1H-pyrazolo[3,4-b]pyridin-3-yl]-5,5-dimethyl-N-(6-methylpyridin-3-yl)-6-oxo-6,7-dihydro-5H-pyrrolo[2,3-d]pyrimidine-4-carboxamide], the MEC in assay [1] came to 0.3 µM. Besides, 68 nM corresponded to half-maximal inhibition in assay [2] (IC50).

On to `COCCNC(=O)c1nc(-c2nn(Cc3ncccc3F)c3ncc(F)cc23)nc2c1C(C)(C)C(=O)N2` [Example 36], for which the MEC in assay [1] worked out at 3 µM. The compound further displayed an IC50 in assay [2] of 73 nM.

Turning to `CC1(C(F)(F)F)C(=O)Nc2nc(-c3nn(Cc4ncccc4F)c4ncc(F)cc34)nc(C(N)=O)c21` (racemic) [Example 21, rac-2-{5-Fluoro-1-[(3-fluoropyridin-2-yl)methyl]-1H-pyrazolo[3,4-b]pyridin-3-yl}-5-methyl-6-oxo-5-(trifluoromethyl)-6,7-dihydro-5H-pyrrolo[2,3-d]pyrimidine-4-carboxamide], the MEC in assay [1] is 3 µM. In addition, the IC50 in assay [2] came out at 230 nM.

As to `CC1(C)C(=O)Nc2nc(-c3nn(Cc4ccccc4F)c4ncccc34)nc(C(=O)NCC3CC3)c21` [Example 84, N-(cyclopropylmethyl)-2-[1-(2-fluorobenzyl)-1H-pyrazolo[3,4-b]pyridin-3-yl]-5,5-dimethyl-6-oxo-6,7-dihydro-5H-pyrrolo[2,3-d]pyrimidine-4-carboxamide], in assay [1], the MEC came to 0.1 µM. Moreover, the half-inhibitory concentration (IC50) in assay [2] turned out to be 23 nM.

A word on the IC50: it is the concentration that gives 50% inhibition. Low values mean inhibition by little substance, high ones a need for much substance.
